Values of other authors, collected in patent US20210316038A1, “ANTIBIOTIC ELUTING POLY(ESTER UREA) FILMS, MESHES AND POUCHES FOR INFECTION CONTROL OF IMPLANTABLE MEDICAL DEVICES” (The University of Akron, priority 2019, published 2021).

In the case of `Cc1nnc(SCC2=C(C(=O)O)N3C(=O)[C@@H](NC(=O)Cn4cnnn4)[C@H]3SC2)s1` [Cefazolin], the solubility in water is listed as “Cefazolin has high solubility in water (>100 mg/ml”.
